# Measurements taken from ChEMBL document CHEMBL1145244, “In vitro advanced antimycobacterial screening of isoniazid-related hydrazones, hydrazides and cyanoboranes: part 14” (2005).
# Legend:
# Assay type in all cases: functional
# [1] = tested on: Mycobacterium tuberculosis; test: In vitro antimycobacterial activity against ethambutol-resistant Mycobacterium tuberculosis strain
# [2] = tested on: Mycobacterium tuberculosis; test: In vitro antimycobacterial activity against isoniazid-resistant Mycobacterium tuberculosis strain
# [3] = tested on: Mycobacterium tuberculosis; test: In vitro antimycobacterial activity against rifampin-resistant Mycobacterium tuberculosis strain
# [4] = tested on: Mycobacterium tuberculosis; test: In vitro antimycobacterial activity against ethionamide-resistant Mycobacterium tuberculosis strain
# [5] = tested on: Mycobacterium tuberculosis; test: In vitro antimycobacterial activity against thiacetazone resistant Mycobacterium tuberculosis strain
# [6] = tested on: Mycobacterium tuberculosis; test: Minimum inhibitory concentration against isoniazid-resistant Mycobacterium tuberculosis strain
SMILES,MIC [1] [µg/mL],MBC [2] [µg/mL],MIC [2] [µg/mL],MBC [3] [µg/mL],MIC [3] [µg/mL],MIC [4] [µg/mL],MIC [5] [µg/mL],MIC [6] [µg/mL]
O=C(N/N=C/c1ccc(C(F)(F)F)cc1)c1ccncc1,0.2,> 1.6,> 1.6,0.4,0.2,1.6,> 1.6,–
C/C(=N\NC(=O)c1ccncc1)C(F)(F)F,0.2,> 1.6,> 1.6,0.2,0.2,> 1.6,> 1.6,–
C/C(=N\NC(=O)c1ccncc1)c1cccc(/C(C)=N/NC(=O)c2ccncc2)n1,≤ 0.2,12.5,> 12.5,6.25,≤ 0.2,> 12.5,> 12.5,–
C/C=N/NC(=O)c1ccncc1,0.025,> 0.75,> 0.75,0.05,0.05,0.375,> 0.75,–
N#CC[n+]1ccc(C(=O)NNCc2ccccc2)cc1,6.25,> 25,> 25,–,–,> 25,> 25,–
N#CC[n+]1ccc(C(=O)NNCC(F)(F)F)cc1,12.5,> 25,> 25,6.25,12.5,> 25,> 25,–
NNC(=O)c1ccncc1 [ISONIAZID],–,> 1.6,–,–,–,–,–,> 0.2
